IC50, Ratio IC50 and inhibition data for 20 compounds are collected here from ChEMBL document CHEMBL4431368, “Development of single and mixed isoform selectivity PI3Kδ inhibitors by targeting Asn836 of PI3Kδ” (Bioorg Med Chem Lett, 2016).

The target of test [1] is Phosphatidylinositol 4,5-bisphosphate 3-kinase catalytic subunit alpha isoform (Homo sapiens, UniProt P42336). The test can be described thus: Inhibition of PI3Kalpha (unknown origin) expressed in baculovirus expression system by kinase-glo luminescence assay. In general terms: In Kinase-Glo more light means more ATP remaining.
Test [2] concerns the target Phosphatidylinositol 4,5-bisphosphate 3-kinase catalytic subunit beta isoform (Homo sapiens, UniProt P42338). Briefly: Inhibition of PI3Kbeta (unknown origin) expressed in baculovirus expression system by kinase-glo luminescence assay.
In test [3] the target is T1, Phosphatidylinositol 4,5-bisphosphate 3-kinase catalytic subunit delta isoform (Homo sapiens, UniProt O00329).
T1 sequence (O00329 whole entry): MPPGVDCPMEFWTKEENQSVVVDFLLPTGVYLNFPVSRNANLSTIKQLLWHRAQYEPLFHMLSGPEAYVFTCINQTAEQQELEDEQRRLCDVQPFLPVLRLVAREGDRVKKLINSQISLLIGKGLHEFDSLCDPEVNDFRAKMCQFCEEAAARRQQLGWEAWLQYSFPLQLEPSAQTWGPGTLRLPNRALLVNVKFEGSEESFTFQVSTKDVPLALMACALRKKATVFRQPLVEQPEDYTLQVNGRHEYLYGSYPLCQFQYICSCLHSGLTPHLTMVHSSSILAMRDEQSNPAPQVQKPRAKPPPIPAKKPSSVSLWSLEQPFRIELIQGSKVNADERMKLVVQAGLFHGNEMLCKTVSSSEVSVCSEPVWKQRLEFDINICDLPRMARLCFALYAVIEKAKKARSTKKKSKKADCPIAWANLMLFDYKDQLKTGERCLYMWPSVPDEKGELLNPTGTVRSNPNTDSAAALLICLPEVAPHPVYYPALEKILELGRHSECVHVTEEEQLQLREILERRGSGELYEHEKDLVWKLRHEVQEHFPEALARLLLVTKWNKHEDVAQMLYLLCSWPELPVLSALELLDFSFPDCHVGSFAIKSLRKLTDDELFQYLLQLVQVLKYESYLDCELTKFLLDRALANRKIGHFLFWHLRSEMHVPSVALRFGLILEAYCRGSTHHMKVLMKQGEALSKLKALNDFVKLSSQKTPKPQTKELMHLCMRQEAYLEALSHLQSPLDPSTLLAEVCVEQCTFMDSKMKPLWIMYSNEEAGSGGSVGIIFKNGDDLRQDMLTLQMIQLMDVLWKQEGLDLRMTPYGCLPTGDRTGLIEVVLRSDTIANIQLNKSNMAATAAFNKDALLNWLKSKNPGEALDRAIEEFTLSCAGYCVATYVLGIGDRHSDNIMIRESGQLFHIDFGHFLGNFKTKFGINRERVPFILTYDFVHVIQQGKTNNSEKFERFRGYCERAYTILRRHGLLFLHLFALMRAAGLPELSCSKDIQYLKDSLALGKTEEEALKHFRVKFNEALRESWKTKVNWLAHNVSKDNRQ
The test can be described thus: Inhibition of PI3Kdelta (unknown origin) expressed in baculovirus expression system by kinase-glo luminescence assay.

Test [4] has as its target Phosphatidylinositol 4,5-bisphosphate 3-kinase catalytic subunit delta isoform (Homo sapiens, UniProt O00329, N836D). The test can be described thus: Inhibition of PI3Kdelta N836D mutant (unknown origin) expressed in Sf21 cells co-expressing p85 by kinase-glo luminescence assay.
Test [5] has as its target Phosphatidylinositol 4,5-bisphosphate 3-kinase catalytic subunit gamma isoform (Homo sapiens, UniProt P48736). Briefly: Inhibition of PI3Kgamma (unknown origin) expressed in baculovirus expression system by kinase-glo luminescence assay.
The species named for test [6] is Homo sapiens. The test can be described thus: Selectivity ratio of IC50 for PI3Kdelta N836D mutant (unknown origin) expressed in Sf21 cells to IC50 for wild type PI3Kdelta (unknown origin) expressed in baculovirus expression system.
The nature of test [7]: Inhibition of PI3Kalpha Q859D mutant (unknown origin) expressed in baculovirus expression system by kinase-glo luminescence assay. Also noted: species or system Homo sapiens.
For test [8], the species on record is Homo sapiens. Briefly: Selectivity ratio of IC50 for wild type PI3Kbeta (unknown origin) expressed in baculovirus expression system to IC50 for PI3Kbeta D862 mutant (unknown origin) expressed in baculovirus expression system.
A short description of test [9]: Inhibition of PI3Kbeta D862 mutant (unknown origin) expressed in baculovirus expression system by kinase-glo luminescence assay. Also noted: species or system Homo sapiens.
Test [10] addresses T2, Phosphatidylinositol 4,5-bisphosphate 3-kinase catalytic subunit delta isoform (Homo sapiens) (UniProt O00329).
T2 sequence (whole entry): T1 sequence (O00329 whole entry)
Briefly: Inhibition of PI3Kdelta in human NAMALWA cells assessed as suppression of Akt S473 phosphorylation levels at […] after 2 hrs by Western blot analysis. It is filed as cell-based.

The source made the active and inactive calls. No cut-off for these calls is given here.

Sequence of Phosphatidylinositol 4,5-bisphosphate 3-kinase catalytic subunit gamma isoform (P48736 whole entry, canonical isoform): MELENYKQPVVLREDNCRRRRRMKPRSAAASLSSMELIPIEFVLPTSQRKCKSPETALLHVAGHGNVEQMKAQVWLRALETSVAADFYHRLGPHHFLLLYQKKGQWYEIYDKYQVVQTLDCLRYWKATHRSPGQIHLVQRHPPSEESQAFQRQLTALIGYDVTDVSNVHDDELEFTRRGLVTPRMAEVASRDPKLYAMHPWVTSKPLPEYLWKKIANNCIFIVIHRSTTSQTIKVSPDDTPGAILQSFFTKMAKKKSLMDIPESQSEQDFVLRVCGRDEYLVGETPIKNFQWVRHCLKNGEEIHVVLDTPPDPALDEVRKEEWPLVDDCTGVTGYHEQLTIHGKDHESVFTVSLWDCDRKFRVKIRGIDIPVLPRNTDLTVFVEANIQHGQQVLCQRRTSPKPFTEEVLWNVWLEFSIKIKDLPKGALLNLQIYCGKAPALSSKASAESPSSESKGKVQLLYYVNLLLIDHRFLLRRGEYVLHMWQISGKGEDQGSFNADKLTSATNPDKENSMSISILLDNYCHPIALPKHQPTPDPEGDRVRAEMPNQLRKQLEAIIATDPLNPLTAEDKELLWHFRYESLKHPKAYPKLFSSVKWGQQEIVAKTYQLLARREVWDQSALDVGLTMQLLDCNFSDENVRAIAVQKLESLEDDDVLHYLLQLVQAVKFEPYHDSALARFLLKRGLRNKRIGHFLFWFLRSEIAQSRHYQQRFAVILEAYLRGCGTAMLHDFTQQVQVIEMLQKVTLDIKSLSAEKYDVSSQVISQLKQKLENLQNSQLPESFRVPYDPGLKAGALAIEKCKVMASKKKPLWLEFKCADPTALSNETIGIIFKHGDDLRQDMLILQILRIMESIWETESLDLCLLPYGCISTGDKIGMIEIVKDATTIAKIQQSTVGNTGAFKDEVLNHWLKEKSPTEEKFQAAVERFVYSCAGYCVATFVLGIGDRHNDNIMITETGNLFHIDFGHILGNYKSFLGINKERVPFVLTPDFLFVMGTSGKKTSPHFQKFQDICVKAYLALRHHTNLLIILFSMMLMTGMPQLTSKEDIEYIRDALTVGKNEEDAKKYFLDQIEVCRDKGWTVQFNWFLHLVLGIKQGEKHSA
Sequence of Phosphatidylinositol 4,5-bisphosphate 3-kinase catalytic subunit delta isoform (Homo sapiens, UniProt O00329, N836D) (O00329 whole entry N836D, canonical isoform): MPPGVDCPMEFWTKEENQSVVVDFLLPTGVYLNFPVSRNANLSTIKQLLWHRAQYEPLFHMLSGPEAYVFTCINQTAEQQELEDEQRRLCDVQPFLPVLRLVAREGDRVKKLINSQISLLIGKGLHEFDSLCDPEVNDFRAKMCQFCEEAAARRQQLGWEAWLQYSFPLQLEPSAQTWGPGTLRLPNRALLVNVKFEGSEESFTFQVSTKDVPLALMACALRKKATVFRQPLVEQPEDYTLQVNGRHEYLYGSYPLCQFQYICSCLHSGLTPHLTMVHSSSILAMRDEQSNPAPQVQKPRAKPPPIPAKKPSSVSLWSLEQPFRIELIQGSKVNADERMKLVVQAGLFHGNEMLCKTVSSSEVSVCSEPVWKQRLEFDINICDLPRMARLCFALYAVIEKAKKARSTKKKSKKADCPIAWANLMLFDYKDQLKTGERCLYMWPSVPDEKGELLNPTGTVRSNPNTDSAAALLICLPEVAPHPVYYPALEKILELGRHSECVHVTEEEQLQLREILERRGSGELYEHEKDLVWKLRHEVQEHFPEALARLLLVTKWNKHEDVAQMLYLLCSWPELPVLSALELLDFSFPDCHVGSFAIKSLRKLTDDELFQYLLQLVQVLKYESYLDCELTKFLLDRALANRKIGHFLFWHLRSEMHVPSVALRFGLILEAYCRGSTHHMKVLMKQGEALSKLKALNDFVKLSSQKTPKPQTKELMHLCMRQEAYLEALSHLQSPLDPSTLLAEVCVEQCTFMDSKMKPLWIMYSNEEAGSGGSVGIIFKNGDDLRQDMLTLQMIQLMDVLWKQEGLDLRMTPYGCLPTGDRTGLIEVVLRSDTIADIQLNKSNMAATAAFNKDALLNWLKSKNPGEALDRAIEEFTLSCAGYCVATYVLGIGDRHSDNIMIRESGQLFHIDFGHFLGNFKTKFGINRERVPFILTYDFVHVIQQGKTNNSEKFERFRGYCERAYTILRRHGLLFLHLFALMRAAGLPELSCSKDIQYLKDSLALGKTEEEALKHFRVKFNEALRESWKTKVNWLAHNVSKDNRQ
Sequence of Phosphatidylinositol 4,5-bisphosphate 3-kinase catalytic subunit beta isoform (P42338 whole entry, canonical isoform): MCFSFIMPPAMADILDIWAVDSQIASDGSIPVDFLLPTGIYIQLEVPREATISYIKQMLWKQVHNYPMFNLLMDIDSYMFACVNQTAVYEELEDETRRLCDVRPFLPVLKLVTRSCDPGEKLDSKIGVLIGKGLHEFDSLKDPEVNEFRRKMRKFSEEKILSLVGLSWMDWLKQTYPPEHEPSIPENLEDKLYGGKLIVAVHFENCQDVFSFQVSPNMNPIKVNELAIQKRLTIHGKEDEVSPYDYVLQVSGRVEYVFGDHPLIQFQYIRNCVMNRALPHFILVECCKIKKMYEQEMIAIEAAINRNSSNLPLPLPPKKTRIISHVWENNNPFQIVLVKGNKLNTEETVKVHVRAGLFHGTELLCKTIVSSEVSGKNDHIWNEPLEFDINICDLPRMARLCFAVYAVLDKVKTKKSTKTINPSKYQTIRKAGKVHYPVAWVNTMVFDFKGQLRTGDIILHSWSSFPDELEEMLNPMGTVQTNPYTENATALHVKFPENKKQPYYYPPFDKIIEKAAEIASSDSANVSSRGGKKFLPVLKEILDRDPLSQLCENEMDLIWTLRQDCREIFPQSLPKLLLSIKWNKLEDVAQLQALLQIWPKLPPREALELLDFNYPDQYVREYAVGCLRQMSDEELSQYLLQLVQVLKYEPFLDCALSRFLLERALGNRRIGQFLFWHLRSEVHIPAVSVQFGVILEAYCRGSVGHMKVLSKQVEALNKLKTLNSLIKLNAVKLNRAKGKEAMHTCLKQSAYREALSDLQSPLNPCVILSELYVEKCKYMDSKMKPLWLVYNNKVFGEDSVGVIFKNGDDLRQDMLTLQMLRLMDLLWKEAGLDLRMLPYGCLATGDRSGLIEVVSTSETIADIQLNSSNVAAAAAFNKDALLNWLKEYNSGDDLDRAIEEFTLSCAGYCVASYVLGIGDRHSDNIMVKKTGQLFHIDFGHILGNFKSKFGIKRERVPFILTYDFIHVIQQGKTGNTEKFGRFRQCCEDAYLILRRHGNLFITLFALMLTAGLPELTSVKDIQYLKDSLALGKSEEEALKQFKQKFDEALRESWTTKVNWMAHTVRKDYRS
Sequence of Phosphatidylinositol 4,5-bisphosphate 3-kinase catalytic subunit alpha isoform (P42336 whole entry, canonical isoform): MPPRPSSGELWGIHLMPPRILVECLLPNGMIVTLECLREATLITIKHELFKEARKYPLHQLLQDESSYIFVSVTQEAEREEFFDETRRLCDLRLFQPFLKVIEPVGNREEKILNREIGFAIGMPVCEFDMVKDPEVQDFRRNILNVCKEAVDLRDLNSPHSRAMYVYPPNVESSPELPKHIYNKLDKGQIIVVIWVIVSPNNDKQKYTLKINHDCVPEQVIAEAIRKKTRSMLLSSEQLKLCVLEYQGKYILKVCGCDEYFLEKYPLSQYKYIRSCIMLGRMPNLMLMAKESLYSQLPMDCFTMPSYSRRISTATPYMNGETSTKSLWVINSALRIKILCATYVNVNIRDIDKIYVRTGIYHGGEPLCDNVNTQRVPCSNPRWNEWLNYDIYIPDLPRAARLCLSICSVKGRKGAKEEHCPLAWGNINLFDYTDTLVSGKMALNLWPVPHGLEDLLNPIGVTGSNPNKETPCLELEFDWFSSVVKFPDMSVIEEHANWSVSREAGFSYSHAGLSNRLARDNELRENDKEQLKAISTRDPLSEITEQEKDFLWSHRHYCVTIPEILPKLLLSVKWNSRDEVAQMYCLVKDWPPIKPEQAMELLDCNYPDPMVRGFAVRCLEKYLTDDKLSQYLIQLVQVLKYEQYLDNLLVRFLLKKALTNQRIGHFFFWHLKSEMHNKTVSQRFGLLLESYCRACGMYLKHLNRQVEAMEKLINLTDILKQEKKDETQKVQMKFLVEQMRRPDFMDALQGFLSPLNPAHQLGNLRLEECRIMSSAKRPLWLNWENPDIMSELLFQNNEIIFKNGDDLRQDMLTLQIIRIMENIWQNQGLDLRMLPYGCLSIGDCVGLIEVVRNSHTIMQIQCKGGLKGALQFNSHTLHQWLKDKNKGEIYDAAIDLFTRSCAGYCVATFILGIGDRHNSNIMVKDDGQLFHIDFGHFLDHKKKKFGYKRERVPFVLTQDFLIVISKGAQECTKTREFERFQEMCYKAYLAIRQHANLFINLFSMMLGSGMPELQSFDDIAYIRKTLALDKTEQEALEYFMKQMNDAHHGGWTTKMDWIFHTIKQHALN

For `O=C(C[C@@H]1CCCN1)N1CCN(c2nc(N3CCOCC3)nc(-n3c(C(F)F)nc4ccccc43)n2)CC1`, the 50% inhibitory concentration (IC50) – broadly, the midpoint of a concentration-inhibition curve – amounted to 2050 nM in test [1]; 146 nM in test [2]; 22 nM in [3]; 7 nM in [4]; 5760 nM in [5].

Consider `O=C(O)[C@H]1CCCN(c2nc(N3CCOCC3)nc(-n3c(C(F)F)nc4ccccc43)n2)C1`, for which the half-inhibitory concentration (IC50) in [1] worked out at 40 nM; in [2] it was 215 nM; in test [3], 42 nM; in test [5], 231 nM.

As to `N[C@H]1CC[C@@H](C(=O)N2CCN(c3nc(N4CCOCC4)nc(-n4c(C(F)F)nc5ccccc54)n3)CC2)CC1`, the concentration for half-maximal inhibition (IC50) in test [1] was 3900 nM; in test [2], 3360 nM; in test [3] it was 143 nM; in [5] it was greater than 10000 nM.

`NC(=O)[C@H](Cc1ccccc1)NC(=O)[C@H]1CCCN(c2nc(N3CCOCC3)nc(-n3c(C(F)F)nc4ccccc43)n2)C1`: the IC50 in test [1] came to 358 nM; in test [2], 342 nM; in test [3], 57 nM; in test [5] it was 1980 nM.

As for `NC(=O)CNC(=O)C1CCN(c2nc(N3CCOCC3)nc(-n3c(C(F)F)nc4ccccc43)n2)CC1`, the IC50 amounted to 98 nM in [1]; 329 nM in test [2]; 66 nM in test [3]; 171 nM in test [4]; 496 nM in [5]. The Ratio IC50 in the test filed under Homo sapiens [6] was 2.6.

As to `O=C([C@H]1CCCCN1)N1CCN(c2nc(N3CCOCC3)nc(-n3c(C(F)F)nc4ccccc43)n2)CC1`, the concentration for half-maximal inhibition (IC50) in test [1] amounted to 2370 nM; in [2] it was 775 nM; in [3], 50 nM; in test [4], 36 nM; in test [5] it was 3590 nM.

`O=C(O)C1CCN(c2nc(N3CCOCC3)nc(-n3c(C(F)F)nc4ccccc43)n2)CC1`: the half-inhibitory concentration (IC50) in test [1] was found to be 183 nM; in [2], 217 nM; in test [3], 38 nM; in test [5], 64 nM.

Turning to `CC(C)[C@H](NC(=O)C1CCN(c2nc(N3CCOCC3)nc(-n3c(C(F)F)nc4ccccc43)n2)CC1)C(N)=O`, the half-maximal inhibitory concentration (IC50) in [1] was found to be 191 nM; in test [2], 602 nM; in test [3], 144 nM; in [5], 440 nM.

With `NC(=O)CNC(=O)[C@H]1CCCN(c2nc(N3CCOCC3)nc(-n3c(C(F)F)nc4ccccc43)n2)C1`, the IC50 in test [1] is 32 nM; in test [2], 24 nM; in [3], 34 nM; in test [4], 95 nM; in [5], 194 nM. In addition, in the test listed under Homo sapiens [6], the Ratio IC50 was 3.

`C[C@@H](NC(=O)C1CCN(c2nc(N3CCOCC3)nc(-n3c(C(F)F)nc4ccccc43)n2)CC1)C(N)=O`: the half-inhibitory concentration (IC50) in [7] was found to be 100 nM; in test [1] it was 114 nM; in [2] it was 601 nM; in test [3], 44 nM; in [9], 123 nM; in test [4], 1900 nM. In test [5], half-maximal inhibition (IC50) required 536 nM. The Ratio IC50 in the test filed under Homo sapiens [6] is 43; in the test filed under Homo sapiens [8], 5. Also, the inhibition entry in [10] was “Active”.

`O=C([C@H]1CCCN1)N1CCN(c2nc(N3CCOCC3)nc(-n3c(C(F)F)nc4ccccc43)n2)CC1`: the IC50 came out at 2610 nM in test [1], 9 nM in test [4] and 5860 nM in test [5]. Moreover, the inhibition entry in test [10] is “Active”.

Turning to `C[C@H](NC(=O)C1CCN(c2nc(N3CCOCC3)nc(-n3c(C(F)F)nc4ccccc43)n2)CC1)C(N)=O`, the half-maximal inhibitory concentration (IC50) in test [1] was found to be 123 nM; in [2], 207 nM; in test [3], 40 nM; in [5] it was 434 nM.

`O=C([C@@H]1CCCN1)N1CCN(c2nc(N3CCOCC3)nc(-n3c(C(F)F)nc4ccccc43)n2)CC1`: the inhibition result in test [10] is “Active”.

In the case of `NC(=O)[C@H](Cc1ccccc1)NC(=O)C1CCN(c2nc(N3CCOCC3)nc(-n3c(C(F)F)nc4ccccc43)n2)CC1`, the IC50 in test [1] was determined as 190 nM; in test [2] it was 513 nM; in test [3] it was 44 nM; in test [5], 708 nM.

As for `NC(=O)[C@H](Cc1ccccc1)NC(=O)[C@@H]1CCCN(c2nc(N3CCOCC3)nc(-n3c(C(F)F)nc4ccccc43)n2)C1`, the half-inhibitory concentration (IC50) in test [1] is 908 nM; in test [2] it was 1720 nM; in [3] it was 263 nM; in [5], 1380 nM.

Turning to `NC(=O)[C@H](CO)NC(=O)C1CCN(c2nc(N3CCOCC3)nc(-n3c(C(F)F)nc4ccccc43)n2)CC1`, the concentration for half-maximal inhibition (IC50) in test [1] came out at 67 nM; in [2], 162 nM; in [3] it was 29 nM; in [5] it was 521 nM.

`O=C([C@@H]1CCCCN1)N1CCN(c2nc(N3CCOCC3)nc(-n3c(C(F)F)nc4ccccc43)n2)CC1`: the IC50 in [1] is 2860 nM; in test [2], 59 nM; in test [3] it was 69 nM; in test [4] it was 24 nM; in test [5], 5530 nM.

Turning to `O=C(CN1CCN(c2nc(N3CCOCC3)nc(-n3c(C(F)F)nc4ccccc43)n2)CC1)[C@H]1CCCN1`, the IC50 in [1] came out at 1770 nM; in test [2] it was 60 nM; in [3], 52 nM; in test [4] it was 4 nM; in [5], 6080 nM.

Turning to `NC(=O)CNC(=O)[C@@H]1CCCN(c2nc(N3CCOCC3)nc(-n3c(C(F)F)nc4ccccc43)n2)C1`, the concentration for half-maximal inhibition (IC50) in test [1] was determined as 83 nM; in [2] it was 166 nM; in test [3] it was 38 nM; in test [5], 445 nM.

Regarding `O=C(O)[C@@H]1CCCN(c2nc(N3CCOCC3)nc(-n3c(C(F)F)nc4ccccc43)n2)C1`, the IC50 in test [1] came out at 183 nM; in test [2] it was 428 nM; in test [3], 163 nM; in [5], 247 nM.
